Consider four compounds from patent US8134004B2, “Substituted N-bicyclicalkyl bicycliccarboxyamide compounds” (Pfizer Inc., priority 2006, dated 2012).

By IC50 is commonly meant the concentration at which inhibition is half-maximal. Read a low IC50 as greater potency in that assay.

Each structure is given as a SMILES string.

Sequence of human VR1 (Q8NER1 whole entry): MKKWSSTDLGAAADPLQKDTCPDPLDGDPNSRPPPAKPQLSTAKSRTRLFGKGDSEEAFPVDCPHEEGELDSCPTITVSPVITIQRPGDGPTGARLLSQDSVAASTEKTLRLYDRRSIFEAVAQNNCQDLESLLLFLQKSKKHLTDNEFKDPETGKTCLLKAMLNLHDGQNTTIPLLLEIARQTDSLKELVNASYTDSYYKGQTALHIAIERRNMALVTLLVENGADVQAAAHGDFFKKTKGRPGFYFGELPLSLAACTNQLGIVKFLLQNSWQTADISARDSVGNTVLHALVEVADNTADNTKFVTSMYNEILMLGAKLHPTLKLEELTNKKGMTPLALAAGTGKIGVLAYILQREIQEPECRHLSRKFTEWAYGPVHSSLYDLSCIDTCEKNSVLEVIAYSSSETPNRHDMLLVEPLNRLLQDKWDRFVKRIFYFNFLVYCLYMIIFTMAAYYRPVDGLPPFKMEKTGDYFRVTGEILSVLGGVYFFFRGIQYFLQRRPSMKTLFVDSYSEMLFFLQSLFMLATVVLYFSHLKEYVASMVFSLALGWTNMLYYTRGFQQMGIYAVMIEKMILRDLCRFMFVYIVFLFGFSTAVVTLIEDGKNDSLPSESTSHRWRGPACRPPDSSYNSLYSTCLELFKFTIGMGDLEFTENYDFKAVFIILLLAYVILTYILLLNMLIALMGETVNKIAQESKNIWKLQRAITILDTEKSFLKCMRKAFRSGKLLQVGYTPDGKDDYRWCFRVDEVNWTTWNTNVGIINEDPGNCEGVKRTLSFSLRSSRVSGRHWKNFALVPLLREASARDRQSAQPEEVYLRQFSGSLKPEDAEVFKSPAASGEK

The experiment has as its target human VR1 (Homo sapiens, UniProt Q8NER1). In words: Human VR1 antagonist assay (Ca2+ imaging). It counts as cell-based. The settings on record: Ca2+ imaging assay using human VR1 highly expressing cells, fura-2/AM; agonist stimulation (capsaicin 300 nM or acid pH 5.8), not given. The text has this:
Human VR1 Antagonist Assay
VR1 antagonistic activity can be determined by the Ca^2+ imaging assay using human VR1 highly expressing cells. The cells that highly express human VR1 receptors are obtainable from several different conventional methods. The one standard method is cloning from human Dorsal Root Ganglion (DRG) or kidney according to the methods such as described in the journal article; Nature, 389, pp 816-824, 1997. Alternatively VR1 receptors highly expressing human keratinocytes are also known and published in the journal article (Biochemical and Biophysical Research Communications, 291, pp 124-129, 2002). […] Furthermore, the method to up regulate human VR1 gene, which is usually a silent gene or don't produce detectable level of VR1 receptors, is also available to obtain propriety cells. Such genetic modification method was described in detail; Nat. Biotechnol., 19, pp 440-445, 2001.
The cells that express human VR1 receptors were maintained in culture flask at 37° C. in an environment containing 5% CO2 until use in the assay. The intracellular Ca^2+ imaging assay to determine VR1 antagonistic activities were done by following procedures.
The culture medium was removed from the flask and fura-2/AM fluorescent calcium indicator was added to the flask at a concentration of 5 μM in the medium. The flask was placed in CO2 incubator and incubated for 1 hour. Then the cells expressing the human VR1 receptors were detached from the flask follow by washing with phosphate buffer saline, PBS(−) and re-suspended in assay buffer. The 80 μl of aliquot of cell suspension (3.75×10^5 cells/ml) was added to the assay plate and the cells were spun down by centrifuge (950 rpm, 20° C., 3 minutes).
The compounds of the examples were tested in the Human VR1 antagonist assay described above.
The capsaicin-induced changes in the intracellular calcium concentration were monitored using FDSS 6000 (Hamamatsu Photonics, Japan), a fluorometric imaging system. The cell suspension in Krebs-Ringer HEPES (KRH) buffer (115 mM NaCl, 5.4 mM KCl, 1 mM MgSO4, 1.8 mM CaCl2, 11 mM D-Glucose, 25 mM HEPES, 0.96 mM Na2HPO4, pH 7.3) were pre-incubated with varying concentrations of the test compounds or KRH buffer (buffer control) for 15 minutes at room temperature under the dark condition. Then capsaicin solution, which gives 300 nM in assay mixture, was automatically added to the assay plate by the FDSS 6000.
The Acid-induced changes in the intracellular calcium concentration were monitored using FDSS 6000 (Hamamatsu Photonics, Japan), a fluorometric imaging system. The cell suspension in resting buffer (HBSS supplemented with 10 mM HEPES, pH 7.4) were pre-incubated with varying concentrations of the test compounds or resting buffer (buffer control) for 15 minutes at room temperature under the dark condition. The cells were automatically added the stimulating solution (HBSS supplemented with MES, final assay buffer pH5.8) by the FDSS 6000.
The monitoring of the changes in the fluorescence signals (λex=340 nm/380 nm, λem=510-520 nm) was initiated at 1 minute prior to the addition of capsaicin solution or acidic buffer and continued for 5 minute.
Compound `CC(NC(=O)c1ccc2nc(C(C)(C)C(F)(F)F)ccc2c1)c1ccc2[nH]ncc2c1` (stereo not shown) [Example C4, N-[1-1H-indazole-5-ylethyl]-2-(2,2,2-trifluoro-1,1-dimethylethyl)quinoline-6-carboxamide] yielded an IC50 of 23 nM.

As to `CC(C)(C)c1ccc2nc(C(=O)NCc3ccc4[nH]nnc4c3)ccc2c1` [Example B6, N-(1H-1,2,3-benzotriazol-5-ylmethyl)-6-tert-butylquinoline-2-carboxamide], the IC50 turned out to be 18.7 nM.

On to `C[C@@H](NC(=O)c1ccc2nc(C(C)(C)C)ccc2c1)c1ccc2[nH]nnc2c1` [Example C1, N-[(1R)-1-(1H-1,2,3-benzotriazol-6-yl)ethyl]-2-tert-butylquinoline-6-carboxamide], for which the IC50 was 39.2 nM.

For `CC(C)(C)c1ccc2cc(C(=O)NCc3ccc4c(c3)CN=N4)ccc2c1` [Example A3, 6-tert-butyl-N-(3H-indazol-5-ylmethyl)-2-naphthamide], the IC50 worked out at 61.6 nM.
